These results are taken from PubChem BioAssay (NCI).

The structures appear in SMILES notation. “And” between values parts separate entries of the source, which are not always exact repeats. Equal entries are not always repeated.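 Assay format: 96-well plates, 48-hour exposure. The concentration for 50% growth inhibition is given as GI50. Definition used: TGI = concentration required for complete inhibition of growth.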

What all share (experiment): growth of human tumour cells (NCI), 48 h
Assay [1] relates to DLD-1 colon.
The test system of assay [2] is HOP-18 NSCLC.
In assay [3] the test system is DMS 273 small cell lung.
For assay [4], the system named is DU-145 prostate.
Assay [5] has as its system M19-MEL melanoma.
Assay [6] deals with MCF7 breast.
Assay [7] concerns MDA-N.
The test system of assay [8] is T-47D breast.

With `C1C[OH+]CC[OH+]CCNCC[OH+]CC[OH+]CCN1.[Cl-].[Pt+4]`, in assay [1], the GI50 is over 100 µM and the TGI was over 100 µM. Moreover, in assay [2], the GI50 was over 100 µM and the TGI is over 100 µM.
As for `COc1cc(/C=C\c2ccc(C)cc2)cc(OC)c1OC`, the TGI was over 100 µM in assay [1]; 17.4 µM in assay [3]; 0.0843 µM in assay [4]; over 100 µM in assay [5]; over 100 µM in assay [6]; 0.00521 µM in assay [7]. Also, the GI50 in assay [5] was 0.0127 µM.
In the case of `CC1(C)C(=O)C(C)(C)C1=NN`, the TGI in assay [1], in assay [3] and in assay [5] was over 100 µM each time.
For `CCCC(=O)Nc1cc(C(=O)N2C[C@@H]3C[C@]34C2=CC(=O)c2[nH]cc(C)c24)n(COC)c1`, the GI50 in assay [4] was 3.18 µM; in assay [7], 3.66 µM; in assay [8] it was 2.38 µM. The TGI in assay [4] is 27.3 µM and 20.9 µM; in assay [6], 50 µM and 11.9 µM; in assay [7], 19.6 µM and 13.3 µM; in assay [8], 30.2 µM and 10.6 µM.
As for `COc1ccc(C2SCC(=O)N2NC(=O)C(O)c2ccccc2)cc1OC` (stereo not given), the GI50 in assay [4], in assay [6] and in assay [8] was over 100 µM in each case. The TGI in assay [4], in assay [6] and in assay [8] was over 100 µM each time.
Regarding `Oc1ccc(C(c2ccc(O)cc2)c2ccc(Cl)cn2)cc1`, the GI50 in assay [4] was 1.06 µM; in assay [6] it was 0.0546 µM; in assay [8] it was 0.0243 µM. Also, the TGI in assay [4] is over 100 µM; in assay [6], 0.545 µM; in assay [8], 0.0762 µM.
Turning to `CC1(C)CC[C@H](Nc2ncc(C(F)(F)F)c(-c3c[nH]c4c(P(C)(C)=O)c(C#N)ccc34)n2)CN1`, the GI50 in assay [4] is 0.52 µM; in assay [6] it was under 0.0137 µM; in assay [8] it was 0.0255 µM. Further, the results for the TGI in assay [4], in assay [6] and in assay [8] were over 36.4 µM, 10.2 µM and 5.84 µM, respectively.
With `O=C(/C=C/C12c3ccccc3C(c3ccccc31)C1C(=O)N(c3ccccc3)C(=O)C12)c1ccccc1` (stereo not given), the figures for the GI50 in assay [4] and in assay [6] were 2.14 µM and 1.48 µM, respectively. Further, the TGI in assay [4] was 6.03 µM; in assay [6], over 100 µM.
As for `O=C(O)[C@@H]1[C@H](C(=O)O)[C@H](C(=O)O)C[C@@H]1C(=O)O`, the TGI in assay [4], in assay [6], in assay [7] and in assay [8] was over 100 µM each time.
With `COc1cc(/C=C2\CCC/C(=C\c3cc(OC)c(O)c(OC)c3)C2=O)cc(OC)c1O`, the TGI in assay [4] is 6.01 µM; in assay [6], 75 µM and > 100 µM; in assay [7] it was 75 µM and > 100 µM; in assay [8], 75 µM. In addition, the figures for the GI50 in assay [6] and in assay [7] were 4 µM and 2.52 µM, respectively.
Regarding `C/C(=N\O)c1cccc(Nc2cc(-n3ccnn3)c3ccccc3n2)c1`, the GI50 in assay [4] was 17.5 µM; in assay [6], over 100 µM; in assay [8] it was 14.9 µM. Moreover, the TGI in assay [4] was 37.2 µM; in assay [6], over 100 µM; in assay [8] it was 64.9 µM.
`CCC(=O)O[C@H]1CC[C@H]2[C@@H]3CC[C@H]4CC(=O)[C@H](C)C[C@]4(C)[C@H]3CC[C@]12C`: the GI50 in assay [4] is over 79.7 µM; in assay [6], 23.9 µM; in assay [8] it was 26 µM. The TGI in assay [4] is over 100 µM; in assay [6] it was over 66.1 µM; in assay [8], over 100 µM.
As for `COc1ccc2c(c1)/C(=C\c1cccnc1)C(=O)N2`, the GI50 in assay [4] is 2.52 µM; in assay [6], 10.9 µM; in assay [8], 13 µM. Moreover, the TGI was 21.3 µM in assay [4], 53.4 µM in assay [6] and 37.9 µM in assay [8].
With `COc1ccc(-c2oc3c(OC)c(OC)c(OC)c(O)c3c(=O)c2OC)cc1OC`, the TGI in assay [4] is over 100 µM; in assay [6] it was over 35.1 µM; in assay [7] it was 30 µM; in assay [8], 25.6 µM.
In the same order, the values of `CCCCS(=O)CCC(N)C(=O)O` (stereo not given) are over 100 µM, over 100 µM, over 100 µM and over 100 µM.
For `C=CCN(/C=C1/C(=O)O[C@H](COC)[C@@]2(C)C1=C(O)C(=O)C1=C2[C@H](OC(C)=O)C[C@]2(C)C(=O)CC[C@@H]12)CC=C`, the results for the GI50 in assay [4], in assay [6] and in assay [8] were 2.43 µM, 0.435 µM and 0.0992 µM, respectively. Moreover, the TGI in assay [4] is over 10 µM; in assay [6] it was over 10 µM; in assay [8], over 3.78 µM.
Regarding `O=C(c1ccc2ccccc2c1)c1c(C(F)(F)F)n([O-])c2cc(F)c(F)cc2[n+]1=O`, the GI50 is 1.46 µM in assay [4], 3.11 µM in assay [6] and 2.67 µM in assay [8]. Also, the TGI was 4.33 µM in assay [4], over 100 µM in assay [6] and 6.14 µM in assay [8].
As to `CCCn1c(SC)nc(COC(=O)NC)c1COC(=O)NC`, the TGI in assay [4], in assay [6], in assay [7] and in assay [8] was over 100 µM each time.
With `CCOC(=O)C1=C(c2ccccc2)N(C)c2ccccc2S1`, the figures for the TGI in assay [4], in assay [6] and in assay [8] were over 100 µM, 78.8 µM and 73.9 µM, respectively.
Turning to `Cc1ccc(/C(=N\N=C(N)N)c2ccccc2)cc1`, the GI50 in assay [4] is 0.41 µM; in assay [6], 0.292 µM; in assay [8], 0.421 µM. The values for the TGI in assay [4], in assay [6] and in assay [8] were 10.4 µM, 10.2 µM and 24.6 µM, respectively.
On to `FC(F)(F)c1cc(-c2nnc3n2N=C(N2CCCC2)CS3)cc(C(F)(F)F)c1`, for which the results for the GI50 in assay [4], in assay [6] and in assay [8] were over 50 µM, over 50 µM and 19.3 µM, respectively. In addition, the TGI in assay [4], in assay [6] and in assay [8] was over 50 µM each time.
